Calls of active or inactive are those of the source. The rule behind the calls is not given here.
Tested on: Candida albicans
Test: Antifungal activity against Candida albicans
Type: functional, organism-based

Row | SMILES | Activity
1 | CNc1nc2c(C)ccc3nc(N(C)C)[nH]c3c-2n1 | inactive
2 | CC(C)CC[C@H](O)[C@](C)(O)[C@H]1CC[C@@]2(O)C3=CC(=O)[C@@H]4C[C@@H](O)[C@@H](O)C[C@]4(C)[C@H]3[C@H](O)C[C@]12C | inactive
3 | CC(C)(O)CC[C@@H](O)[C@](C)(O)[C@H]1CC[C@@]2(O)C3=CC(=O)[C@@H]4C[C@@H](O)[C@@H](O)C[C@]4(C)[C@H]3CC[C@]12C | inactive
4 | CC(C)(O)CC[C@H](O)[C@](C)(O)[C@H]1CC[C@@]2(O)C3=CC(=O)C4=C[C@@H](O)[C@@H](O)C[C@]4(C)[C@H]3CC[C@]12C | inactive

Reference: ChEMBL document CHEMBL1159223, “4-Dehydroecdysterone, a new ecdysteroid from the zoanthid Parazoanthus sp” (J Nat Prod, 1995)
